Values of other authors in patent publication US20050009848A1, “Use of antivirals against inflammatory bowel diseases” (ICN Pharmaceuticals Switzerland Ltd., priority 2003, published 2005).

Settings: one patient with Crohn's disease, HSV-I and HSV-II DNA detected in intestinal mucosa; acyclovir co-used with classical mesalazin-corticosteroid therapy

For `Nc1nc2c(ncn2COCCO)c(=O)[nH]1` [acyclovir], the “morphological and clinical findings” value is given as “changed the morphological and clinical findings decisively”.
